Data on eleven molecules can be found in US20240116985A1, “STAPLED PEPTIDES AND METHODS THEREOF” (priority 2020, published 2024).

Converted amounts (≈) assume the structure as drawn. Read-outs that look alike come from different tables or passages of the source.

The target of data set [1] is T1, full-length beta-Catenin (Uniprot ID P35222) (Homo sapiens, UniProt P35222).
T1 construct: 10 nM full-length beta-Catenin (Uniprot ID P35222)
T1 sequence (P35222 1-781): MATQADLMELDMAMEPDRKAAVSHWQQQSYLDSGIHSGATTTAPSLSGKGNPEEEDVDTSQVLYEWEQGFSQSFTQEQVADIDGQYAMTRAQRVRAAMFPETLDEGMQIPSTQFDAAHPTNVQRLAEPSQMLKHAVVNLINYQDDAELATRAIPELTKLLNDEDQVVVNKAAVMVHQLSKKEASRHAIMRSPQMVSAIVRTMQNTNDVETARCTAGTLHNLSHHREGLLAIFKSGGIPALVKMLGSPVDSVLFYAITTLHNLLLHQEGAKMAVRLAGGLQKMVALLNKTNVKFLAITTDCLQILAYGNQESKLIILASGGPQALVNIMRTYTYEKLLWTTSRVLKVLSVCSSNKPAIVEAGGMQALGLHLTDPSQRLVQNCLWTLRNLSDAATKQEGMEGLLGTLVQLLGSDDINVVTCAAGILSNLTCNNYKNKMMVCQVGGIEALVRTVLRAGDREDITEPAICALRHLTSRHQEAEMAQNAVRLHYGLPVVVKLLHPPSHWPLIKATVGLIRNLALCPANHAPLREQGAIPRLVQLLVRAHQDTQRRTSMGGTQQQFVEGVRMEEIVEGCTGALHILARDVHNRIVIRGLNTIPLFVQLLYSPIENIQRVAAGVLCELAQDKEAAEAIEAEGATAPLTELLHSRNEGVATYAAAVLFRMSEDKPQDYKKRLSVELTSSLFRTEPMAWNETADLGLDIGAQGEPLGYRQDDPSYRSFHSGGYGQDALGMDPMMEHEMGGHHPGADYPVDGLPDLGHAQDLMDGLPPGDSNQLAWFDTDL
Kind of data set: Fluorescence polarization IC50 (beta-catenin / 5FAM-TCF4 10-53 competition). Format: binding.

The nature of a further data set: CHI Log D procedure. Format: physicochemical. Conditions: for chromatographic logD: pH 7.4, CHI Log D; for CHI Log D: pH 7.4.
Another data set can be described thus: Solubility in PBS. Format: physicochemical. The essentials: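 The PBS solution was ultracentrifuged and the supernatant analyzed by HPLC. Its peak area was divided by that of a 50 μM peptide DMSO reference injection and multiplied by 50 uM to give solubility.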
The mark [2] stands for this setting: fluorescence polarization, beta-catenin, read-out: FP EC50.

As usually defined, the chromatographic logD is lipophilicity estimated from chromatographic retention. As usually defined, the Solubility is how much of the substance goes into solution per volume. With `CC(=O)N1CCC[C@]12CC=CCCCC1(CCCC=CCCCOC(=O)N3CC[C@@](C(=O)N[C@@H](Cc4ccsc4)C(=O)N[C@@H](Cc4csc5ccccc45)C(=O)N[C@@H](CCC(N)=O)C(=O)N[C@@H](CCCCNC(=O)CN4CCOCC4)C(N)=O)(C3)NC(=O)[C@H](CC(N)=O)NC(=O)[C@H](Cc3ccccc3)NC(=O)[C@H](C)NC(=O)[C@H](C)NC(=O)[C@H](CC(=O)O)NC(=O)[C@H](CC(=O)O)NC1=O)NC(=O)[C@H](CC(C)(C)C)NC(=O)[C@H](CC(=O)O)NC2=O` (stereo partly drawn) [I-905, Ac-PL3-Asp-Npg-B5-Asp-Asp-Ala-Ala-Phe-Asn-PyrS2-3Thi-BztA-Gln-[Morph Ac]Lys-NH2], in data set [1] (read-out: beta-Catenin FP IC50), the IC50 is 0.008 µM. The same molecule gave a chromatographic logD in the data set “CHI Log D procedure” of 1.92. Besides, the Solubility in “Solubility in PBS” (Solubility (uM)) amounted to 46 µM (≈ 100 µg/mL).
Taken in the same sequence, the figures for `COCCOCCOCCOCCC(=O)NCCCC[C@H](NC(=O)[C@H](CCC(N)=O)NC(=O)[C@H](Cc1csc2ccccc12)NC(=O)[C@H](Cc1ccsc1)NC(=O)[C@]12CCN(C1)C(=O)OCCCC=CCCCC1(CCCC=CC[C@]3(CCCN3C(C)=O)C(=O)N[C@@H](CC(=O)O)C(=O)N[C@@H](CC(C)(C)C)C(=O)N1)C(=O)N[C@@H](CC(=O)O)C(=O)N[C@@H](CC(=O)O)C(=O)N[C@@H](C)C(=O)N[C@@H](C)C(=O)N[C@@H](Cc1ccccc1)C(=O)N[C@@H](CC(N)=O)C(=O)N2)C(N)=O` (stereo partly drawn) [I-912, Ac-PL3-Asp-Npg-B5-Asp-Asp-Ala-Ala-Phe-Asn-PyrS2-3Thi-BztA-Gln-[mPEG4]Lys-NH2] were 0.01 µM, 1.83 and 45 µM (≈ 102 µg/mL).
Consider `COCCOCCOCCOCCOCCOCCOCCOCCC(=O)NCCCC[C@H](NC(=O)[C@H](CCC(N)=O)NC(=O)[C@H](Cc1csc2ccccc12)NC(=O)[C@H](Cc1ccsc1)NC(=O)[C@]12CCN(C1)C(=O)OCCCC=CCCCC1(CCCC=CC[C@]3(CCCN3C(C)=O)C(=O)N[C@@H](CC(=O)O)C(=O)N[C@@H](CC(C)(C)C)C(=O)N1)C(=O)N[C@@H](CC(=O)O)C(=O)N[C@@H](CC(=O)O)C(=O)N[C@@H](C)C(=O)N[C@@H](C)C(=O)N[C@@H](Cc1ccccc1)C(=O)N[C@@H](CC(N)=O)C(=O)N2)C(N)=O` (stereo partly drawn) [I-914, Ac-PL3-Asp-Npg-B5-Asp-Asp-Ala-Ala-Phe-Asn-PyrS2-3Thi-BztA-Gln-[mPEG8]Lys-NH2], for which the IC50 in data set [1] (read-out: beta-Catenin FP IC50) worked out at 0.016 µM. The molecule further registered a chromatographic logD in the data set “CHI Log D procedure” of 1.82. In addition, the Solubility in “Solubility in PBS” (Solubility (uM)) was found to be 46 µM (≈ 112 µg/mL).
Taken in the same sequence, the figures for `CC(=O)N1CCC[C@]12CC=CCCCC1(CCCC=CCCCOC(=O)N3CC[C@@](C(=O)N[C@@H](Cc4ccsc4)C(=O)N[C@@H](Cc4csc5ccccc45)C(=O)N[C@@H](CCC(N)=O)C(=O)N[C@@H](CCCCNC(=O)c4cccc5ccccc45)C(N)=O)(C3)NC(=O)[C@H](CC(N)=O)NC(=O)[C@H](Cc3ccccc3)NC(=O)[C@H](C)NC(=O)[C@H](C)NC(=O)[C@H](CC(=O)O)NC(=O)[C@H](CC(=O)O)NC1=O)NC(=O)[C@H](CC(C)(C)C)NC(=O)[C@H](CC(=O)O)NC2=O` (stereo partly drawn) [I-916, Ac-PL3-Asp-Npg-B5-Asp-Asp-Ala-Ala-Phe-Asn-PyrS2-3Thi-BztA-Gln-[1Napc]Lys-NH2] were 0.028 µM, 2.33 and 45 µM (≈ 99 µg/mL).
For `CC(=O)N1CCC[C@]12CC=CCCCC1(CCCC=CCCCOC(=O)N3CC[C@@](C(=O)N[C@@H](Cc4ccsc4)C(=O)N[C@@H](Cc4csc5ccccc45)C(=O)N[C@@H](CO)C(N)=O)(C3)NC(=O)[C@H](CC(N)=O)NC(=O)[C@H](Cc3ccccc3)NC(=O)[C@H](C)NC(=O)[C@H](C)NC(=O)[C@H](CN(CC(=O)O)CC(F)(F)F)NC(=O)[C@H](CC(=O)O)NC1=O)NC(=O)[C@H](CC(C)(C)C)NC(=O)[C@H](CC(=O)O)NC2=O` (stereo partly drawn) [I-940, Ac-PL3-Asp-Npg-B5-Asp-TfeGA-Ala-Ala-Phe-Asn-PyrS2-3Thi-BztA-Ser-NH2], the IC50 in data set [1] (setting [2]) and in data set [1] (read-out: beta-Catenin FP IC50) was 1.74 µM throughout. Moreover, the “CHI Log D” value in “CHI Log D procedure” came to 2.055. Moreover, in “Solubility in PBS”, the “Solubility” value was found to be 45 µM (≈ 89.5 µg/mL).
Take `CC(=O)N1CCC[C@]12CC=CCCCC1(CCCC=CCCCOC(=O)N3CC[C@@](C(=O)N[C@@H](Cc4ccsc4)C(=O)N[C@@H](Cc4csc5ccccc45)C(=O)N[C@@H](CO)C(N)=O)(C3)NC(=O)[C@H](CC(N)=O)NC(=O)[C@H](Cc3ccccc3)NC(=O)[C@H](C)NC(=O)[C@H](C)NC(=O)[C@H](CN(CC(=O)O)CC(F)(F)F)NC(=O)[C@H](CC(=O)O)NC1=O)NC(=O)[C@H](CC(C)(C)C)NC(=O)[C@H](CC(=O)O)NC2=O` (stereo partly drawn) [I-941, Ac-PL3-Asp-Npg-B5-Asp-TfeGA-Ala-Ala-Phe-Asn-PyrS2-3Thi-BztA-Ser-NH2]: the IC50 in data set [1] (setting [2]) and in data set [1] (read-out: beta-Catenin FP IC50) was 2.11 µM throughout. In “CHI Log D procedure”, the “CHI Log D” value is reported as 2.011. Besides, in “Solubility in PBS”, the “Solubility” value came to 46 µM (≈ 91.5 µg/mL).
Regarding `CC(=O)N1CCC[C@]12CC=CCCCC1(CCCC=CCCCOC(=O)N3CC[C@@](C(=O)N[C@@H](Cc4ccsc4)C(=O)N[C@@H](Cc4csc5ccccc45)C(=O)N[C@H](C(N)=O)[C@@H](C)O)(C3)NC(=O)[C@H](CC(N)=O)NC(=O)[C@H](Cc3ccccc3)NC(=O)[C@H](C)NC(=O)[C@H](C)NC(=O)[C@H](CN(CC(=O)O)CC(F)(F)F)NC(=O)[C@H](CC(=O)O)NC1=O)NC(=O)[C@H](CC(C)(C)C)NC(=O)[C@H](CC(=O)O)NC2=O` (stereo partly drawn) [I-942, Ac-PL3-Asp-Npg-B5-Asp-TfeGA-Ala-Ala-Phe-Asn-PyrS2-3Thi-BztA-Thr-NH2], the IC50 in data set [1] (setting [2]) and in data set [1] (read-out: beta-Catenin FP IC50) was 1.28 µM each time. Also, the “CHI Log D” value in “CHI Log D procedure” is on record as 1.984. The “Solubility” value in “Solubility in PBS” is 46 µM (≈ 92.1 µg/mL).
With `CC(=O)N1CCC[C@]12CC=CCCCC1(CCCC=CCCCOC(=O)N3CC[C@@](C(=O)N[C@@H](Cc4ccsc4)C(=O)N[C@@H](Cc4csc5ccccc45)C(=O)N[C@H](C(N)=O)[C@@H](C)O)(C3)NC(=O)[C@H](CC(N)=O)NC(=O)[C@H](Cc3ccccc3)NC(=O)[C@H](C)NC(=O)[C@H](C)NC(=O)[C@H](CN(CC(=O)O)CC(F)(F)F)NC(=O)[C@H](CC(=O)O)NC1=O)NC(=O)[C@H](CC(C)(C)C)NC(=O)[C@H](CC(=O)O)NC2=O` (stereo partly drawn) [I-943, Ac-PL3-Asp-Npg-B5-Asp-TfeGA-Ala-Ala-Phe-Asn-PyrS2-3Thi-BztA-Thr-NH2], the IC50 in data set [1] (setting [2]) and in data set [1] (read-out: beta-Catenin FP IC50) was 1.99 µM each time. In “CHI Log D procedure”, the “CHI Log D” value came to 2.071. Further, in “Solubility in PBS”, the “Solubility” value is 49 µM (≈ 98.1 µg/mL).
Consider `CC(=O)N1CCC[C@]12CC=CCCCC1(CCCC=CCCCOC(=O)N3CC[C@@](C(=O)N[C@@H](Cc4ccsc4)C(=O)N[C@@H](Cc4csc5ccccc45)C(=O)N[C@@H](CC(C)C)C(N)=O)(C3)NC(=O)[C@H](CC(N)=O)NC(=O)[C@H](Cc3ccccc3)NC(=O)[C@H](C)NC(=O)[C@H](C)NC(=O)[C@H](CN(CC(=O)O)CC(F)(F)F)NC(=O)[C@H](CC(=O)O)NC1=O)NC(=O)[C@H](CC(C)(C)C)NC(=O)[C@H](CC(=O)O)NC2=O` (stereo partly drawn) [I-946, Ac-PL3-Asp-Npg-B5-Asp-TfeGA-Ala-Ala-Phe-Asn-PyrS2-3Thi-BztA-Leu-NH2], for which the IC50 in data set [1] (setting [2]) and in data set [1] (read-out: beta-Catenin FP IC50) was 0.798 µM in each case. Moreover, the “CHI Log D” value in the data set “CHI Log D procedure” is on record as 2.209. Besides, the “Solubility” value in “Solubility in PBS” was determined as 47 µM (≈ 94.7 µg/mL).
`CC(=O)N1CCC[C@]12CC=CCCCC1(CCCC=CCCCOC(=O)N3CC[C@@](C(=O)N[C@@H](Cc4ccsc4)C(=O)N[C@@H](Cc4csc5ccccc45)C(=O)N[C@@H](CC(C)C)C(N)=O)(C3)NC(=O)[C@H](CC(N)=O)NC(=O)[C@H](Cc3ccccc3)NC(=O)[C@H](C)NC(=O)[C@H](C)NC(=O)[C@H](CN(CC(=O)O)CC(F)(F)F)NC(=O)[C@H](CC(=O)O)NC1=O)NC(=O)[C@H](CC(C)(C)C)NC(=O)[C@H](CC(=O)O)NC2=O` (stereo partly drawn) [I-947, Ac-PL3-Asp-Npg-B5-Asp-TfeGA-Ala-Ala-Phe-Asn-PyrS2-3Thi-BztA-Leu-NH2]: the IC50 in data set [1] (setting [2]) and in data set [1] (read-out: beta-Catenin FP IC50) was 1.05 µM in each case. The “CHI Log D” value in “CHI Log D procedure” worked out at 2.271. For the same molecule, in the data set “Solubility in PBS”, the “Solubility” value worked out at 47 µM (≈ 94.7 µg/mL).
In the case of `CC(=O)N1CCC[C@]12CC=CCCCC1(CCCC=CCCCOC(=O)N3CC[C@@](C(=O)N[C@@H](Cc4ccsc4)C(=O)N[C@@H](Cc4csc5ccccc45)C(=O)N[C@@H](C(N)=O)[C@H](C)O)(C3)NC(=O)[C@H](CC(N)=O)NC(=O)[C@H](Cc3ccccc3)NC(=O)[C@H](C)NC(=O)[C@H](C)NC(=O)[C@H](CN(CC(=O)O)CC(F)(F)F)NC(=O)[C@H](CC(=O)O)NC1=O)NC(=O)[C@H](CC(C)(C)C)NC(=O)[C@H](CC(=O)O)NC2=O` (stereo partly drawn) [I-948, Ac-PL3-Asp-Npg-B5-Asp-TfeGA-Ala-Ala-Phe-Asn-PyrS2-3Thi-BztA-dThr-NH2], the IC50 in data set [1] (setting [2]) and in data set [1] (read-out: beta-Catenin FP IC50) was 2.43 µM throughout. Besides, the “CHI Log D” value in the data set “CHI Log D procedure” was found to be 2.013. Besides, the “Solubility” value in “Solubility in PBS” worked out at 47 µM (≈ 94.1 µg/mL).
